Data: ChEMBL document CHEMBL4020811, “JAK2 JH2 Fluorescence Polarization Assay and Crystal Structures for Complexes with Three Small Molecules” (ACS Med Chem Lett, 2017)

What follows are molecules tested against Tyrosine-protein kinase JAK2 (Homo sapiens, UniProt O60674) (assay: Binding affinity to wild type JAK2 JH2 domain (unknown origin) by competitive fluorescence polarization assay).
Tyrosine-protein kinase JAK2, sequence (O60674 whole entry, the tested form may be a part): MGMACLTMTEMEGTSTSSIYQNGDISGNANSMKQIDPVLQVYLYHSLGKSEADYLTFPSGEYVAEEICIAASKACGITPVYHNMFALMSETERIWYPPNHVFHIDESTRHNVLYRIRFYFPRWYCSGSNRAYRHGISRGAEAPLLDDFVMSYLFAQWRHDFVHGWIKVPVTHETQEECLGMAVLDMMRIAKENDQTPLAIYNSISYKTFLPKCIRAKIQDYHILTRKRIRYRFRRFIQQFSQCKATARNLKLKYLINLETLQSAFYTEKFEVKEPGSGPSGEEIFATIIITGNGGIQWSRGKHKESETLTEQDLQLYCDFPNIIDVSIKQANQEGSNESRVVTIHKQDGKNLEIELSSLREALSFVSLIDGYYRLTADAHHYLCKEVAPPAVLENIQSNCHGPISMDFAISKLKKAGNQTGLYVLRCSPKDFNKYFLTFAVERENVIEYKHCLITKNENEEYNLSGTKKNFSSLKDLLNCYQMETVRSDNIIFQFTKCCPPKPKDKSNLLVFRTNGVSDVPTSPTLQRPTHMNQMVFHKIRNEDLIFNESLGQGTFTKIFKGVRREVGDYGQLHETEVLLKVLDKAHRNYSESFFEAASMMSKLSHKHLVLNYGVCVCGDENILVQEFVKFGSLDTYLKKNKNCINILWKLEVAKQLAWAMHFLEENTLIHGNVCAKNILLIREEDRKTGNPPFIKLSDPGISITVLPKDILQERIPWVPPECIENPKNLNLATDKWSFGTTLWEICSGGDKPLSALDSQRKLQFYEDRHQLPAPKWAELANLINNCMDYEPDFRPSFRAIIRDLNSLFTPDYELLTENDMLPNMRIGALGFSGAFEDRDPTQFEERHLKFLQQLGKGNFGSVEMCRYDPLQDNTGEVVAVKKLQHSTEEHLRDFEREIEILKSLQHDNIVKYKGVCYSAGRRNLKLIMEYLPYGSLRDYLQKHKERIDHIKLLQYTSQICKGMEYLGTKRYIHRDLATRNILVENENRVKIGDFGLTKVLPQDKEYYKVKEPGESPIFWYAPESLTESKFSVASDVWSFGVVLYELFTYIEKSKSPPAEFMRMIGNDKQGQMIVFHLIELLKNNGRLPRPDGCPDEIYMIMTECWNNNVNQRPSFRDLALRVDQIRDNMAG
With CN(Cc1ccc(Nc2nc(N)n(C(=O)c3c(F)cccc3F)n2)cc1)C(=S)Nc1ccc2c(c1)C(=O)OC21c2ccc(O)cc2Oc2cc(O)ccc21 the Kd was 0.205 µM. Work on N#Cc1ccc(Nc2nc(N)cc(-n3ccc(CO)n3)n2)cc1 yielded a Kd of 57.3 µM. In the case of N#Cc1ccc(Nc2nc(N)nc(-c3ccc(CO)o3)n2)cc1, the Kd is reported as 122 µM. For CS(=O)(=O)NCc1cn(-c2nc(N)nc(Nc3ccc(C#N)cc3)n2)nn1, the Kd was 106 µM. Molecule Cc1cc(C)n2c1C=C1C=CC(CCC(=O)NCCNC(=O)O[C@H]3[C@@H](O)[C@H](n4cnc5c(N)ncnc54)O[C@@H]3COP(=O)(O)OP(=O)(O)OP(=O)(O)O)=[N+]1[B-]2(F)F has a Kd of 7 µM. Nc1nc(Nc2ccc(C(=O)NCCCCCNC(=S)Nc3ccc4c(c3)C(=O)OC43c4ccc(O)cc4Oc4cc(O)ccc43)cc2)nn1C(=O)c1c(F)cccc1F was tested, and the Kd was 0.227 µM.
